Data from article PMC12136037, “Type II kinase inhibitors that target Parkinson’s disease–associated LRRK2” (Science Advances, 2025).
Where two headings read alike, the source gives them in different places.

Tests used:
Assay in all cases: DSF 100 kinase selectivity screen;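 on dTm: compound tested at 20 µM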
Assay type in all cases: binding
[1] = tested on: ~100 representative kinases; conditions: for dTm: Protein BRD, average of three replicates
Protocol: (§1) Recombinant protein kinase domains with a concentration of 2 μM were mixed with a 20 μM compound solution in dimethyl sulfoxide (DMSO), 20 mM Hepes (pH 7.5), and 500 mM NaCl. SYPRO Orange (5000×, Invitrogen) was added as a fluorescence probe (1μl/ml). Subsequently, temperature-dependent protein unfolding profiles were measured using the QuantStudio 5 realtime PCR machine (Thermo Fisher Scientific, Waltham, MA, USA). […] The temperature was raised with a step rate of 3°C/min. […] Differences in melting temperature are given as ΔTm values in degrees Celsius. […]

[2] = target: T1, ~100 representative kinases (Homo sapiens, UniProt Q8TF76); conditions: protein GSG2; average of three replicates
T1 construct: Recombinant protein kinase domains with a concentration of 2 μM
T1 sequence (Q8TF76 1-798): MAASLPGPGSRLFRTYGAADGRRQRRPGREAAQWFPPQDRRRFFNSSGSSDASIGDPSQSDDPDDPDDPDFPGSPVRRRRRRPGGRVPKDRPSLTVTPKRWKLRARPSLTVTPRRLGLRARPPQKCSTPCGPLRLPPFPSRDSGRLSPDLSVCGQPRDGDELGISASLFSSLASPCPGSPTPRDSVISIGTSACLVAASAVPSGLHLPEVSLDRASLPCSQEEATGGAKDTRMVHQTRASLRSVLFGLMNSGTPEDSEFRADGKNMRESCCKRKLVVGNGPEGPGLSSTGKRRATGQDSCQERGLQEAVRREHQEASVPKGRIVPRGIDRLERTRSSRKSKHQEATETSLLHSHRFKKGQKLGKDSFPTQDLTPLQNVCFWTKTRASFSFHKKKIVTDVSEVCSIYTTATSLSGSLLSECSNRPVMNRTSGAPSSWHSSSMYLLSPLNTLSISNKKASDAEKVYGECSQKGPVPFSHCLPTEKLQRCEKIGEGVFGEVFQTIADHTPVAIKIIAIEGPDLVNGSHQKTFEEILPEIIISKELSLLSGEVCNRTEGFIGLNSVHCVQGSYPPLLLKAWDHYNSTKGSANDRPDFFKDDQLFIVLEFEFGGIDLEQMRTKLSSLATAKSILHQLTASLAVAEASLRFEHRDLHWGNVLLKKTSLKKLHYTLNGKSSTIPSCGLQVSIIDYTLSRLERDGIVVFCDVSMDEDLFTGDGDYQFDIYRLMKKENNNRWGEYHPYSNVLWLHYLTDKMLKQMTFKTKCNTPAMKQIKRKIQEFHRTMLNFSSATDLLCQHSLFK
Protocol: as §1

[3] = target: T2, ~100 representative kinases (Homo sapiens, UniProt O43293); conditions: Protein DAPK3; average of three replicates
T2 construct: Recombinant protein kinase domains with a concentration of 2 μM
Protocol: as §1

[4] = target: T3, ~100 representative kinases (Homo sapiens, UniProt O14733); conditions: protein MAP2K7; average of three replicates
T3 construct: Recombinant protein kinase domains with a concentration of 2 μM
T3 sequence (O14733 1-419): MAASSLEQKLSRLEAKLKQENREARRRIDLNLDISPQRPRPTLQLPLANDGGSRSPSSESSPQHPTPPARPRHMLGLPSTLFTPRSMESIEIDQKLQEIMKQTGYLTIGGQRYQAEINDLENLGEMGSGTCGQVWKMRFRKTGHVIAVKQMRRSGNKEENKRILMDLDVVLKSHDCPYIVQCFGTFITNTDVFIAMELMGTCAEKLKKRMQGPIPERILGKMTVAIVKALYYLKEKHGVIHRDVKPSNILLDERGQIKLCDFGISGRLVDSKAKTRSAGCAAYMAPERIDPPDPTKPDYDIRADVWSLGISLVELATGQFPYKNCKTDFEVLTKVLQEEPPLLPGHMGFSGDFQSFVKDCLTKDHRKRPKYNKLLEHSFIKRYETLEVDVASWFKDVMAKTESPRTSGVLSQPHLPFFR
Protocol: as §1

[5] = target: T4, ~100 representative kinases (Homo sapiens, UniProt O15075); conditions: Protein DCAMKL1; average of three replicates
T4 construct: Recombinant protein kinase domains with a concentration of 2 μM
Protocol: as §1

[6] = target: T5, ~100 representative kinases (Homo sapiens, UniProt P07332); conditions: protein FESA; average of three replicates
T5 construct: Recombinant protein kinase domains with a concentration of 2 μM
Protocol: as §1

[7] = target: T6, ~100 representative kinases (Homo sapiens, UniProt Q9NSY1); conditions: Protein BMP2K; average of three replicates
T6 construct: Recombinant protein kinase domains with a concentration of 2 μM
Protocol: as §1

[8] = target: T7, ~100 representative kinases (Homo sapiens, UniProt P45984); conditions: protein MAPK9; average of three replicates
T7 construct: Recombinant protein kinase domains with a concentration of 2 μM
Protocol: as §1

[9] = target: T8, ~100 representative kinases (Homo sapiens, UniProt Q9H2X6); conditions: protein HIPK2; average of three replicates
T8 construct: Recombinant protein kinase domains with a concentration of 2 μM
Protocol: as §1

[10] = target: T9, ~100 representative kinases (Homo sapiens, UniProt O15264); conditions: protein MAPK13; average of three replicates
T9 construct: Recombinant protein kinase domains with a concentration of 2 μM
T9 sequence (O15264 1-365): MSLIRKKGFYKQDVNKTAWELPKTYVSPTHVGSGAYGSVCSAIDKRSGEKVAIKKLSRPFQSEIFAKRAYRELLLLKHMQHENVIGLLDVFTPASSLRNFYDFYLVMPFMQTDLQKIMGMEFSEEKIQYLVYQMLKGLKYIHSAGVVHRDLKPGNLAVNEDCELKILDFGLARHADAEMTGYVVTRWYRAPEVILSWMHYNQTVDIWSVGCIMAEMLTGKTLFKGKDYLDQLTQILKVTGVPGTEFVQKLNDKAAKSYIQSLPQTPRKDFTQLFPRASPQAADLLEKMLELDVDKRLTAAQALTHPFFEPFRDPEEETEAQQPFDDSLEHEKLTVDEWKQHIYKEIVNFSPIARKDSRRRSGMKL
Protocol: as §1

[11] = target: T10, ~100 representative kinases (Homo sapiens, UniProt P45985); conditions: protein MAP2K4; average of three replicates
T10 construct: Recombinant protein kinase domains with a concentration of 2 μM
T10 sequence (P45985 1-399): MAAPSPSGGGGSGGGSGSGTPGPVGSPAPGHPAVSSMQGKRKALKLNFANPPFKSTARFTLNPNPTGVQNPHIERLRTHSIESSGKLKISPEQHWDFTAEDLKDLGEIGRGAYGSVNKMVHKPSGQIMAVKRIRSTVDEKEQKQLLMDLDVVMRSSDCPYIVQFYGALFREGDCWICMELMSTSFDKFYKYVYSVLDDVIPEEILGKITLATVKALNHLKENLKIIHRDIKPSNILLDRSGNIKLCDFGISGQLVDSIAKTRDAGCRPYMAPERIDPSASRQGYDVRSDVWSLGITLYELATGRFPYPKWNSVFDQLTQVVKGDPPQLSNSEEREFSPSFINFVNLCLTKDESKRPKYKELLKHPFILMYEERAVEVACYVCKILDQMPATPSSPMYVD
Protocol: as §1

[12] = number of kinases with thermal shift >5 K divided by total number of kinases screened
[13] = number of proteins of the DSF panel with dTm >5K
[14] = selectivity score: # >5K divided by # of proteins tested in the DSF panel

T5 sequence (P07332 whole entry, the tested form may be a part): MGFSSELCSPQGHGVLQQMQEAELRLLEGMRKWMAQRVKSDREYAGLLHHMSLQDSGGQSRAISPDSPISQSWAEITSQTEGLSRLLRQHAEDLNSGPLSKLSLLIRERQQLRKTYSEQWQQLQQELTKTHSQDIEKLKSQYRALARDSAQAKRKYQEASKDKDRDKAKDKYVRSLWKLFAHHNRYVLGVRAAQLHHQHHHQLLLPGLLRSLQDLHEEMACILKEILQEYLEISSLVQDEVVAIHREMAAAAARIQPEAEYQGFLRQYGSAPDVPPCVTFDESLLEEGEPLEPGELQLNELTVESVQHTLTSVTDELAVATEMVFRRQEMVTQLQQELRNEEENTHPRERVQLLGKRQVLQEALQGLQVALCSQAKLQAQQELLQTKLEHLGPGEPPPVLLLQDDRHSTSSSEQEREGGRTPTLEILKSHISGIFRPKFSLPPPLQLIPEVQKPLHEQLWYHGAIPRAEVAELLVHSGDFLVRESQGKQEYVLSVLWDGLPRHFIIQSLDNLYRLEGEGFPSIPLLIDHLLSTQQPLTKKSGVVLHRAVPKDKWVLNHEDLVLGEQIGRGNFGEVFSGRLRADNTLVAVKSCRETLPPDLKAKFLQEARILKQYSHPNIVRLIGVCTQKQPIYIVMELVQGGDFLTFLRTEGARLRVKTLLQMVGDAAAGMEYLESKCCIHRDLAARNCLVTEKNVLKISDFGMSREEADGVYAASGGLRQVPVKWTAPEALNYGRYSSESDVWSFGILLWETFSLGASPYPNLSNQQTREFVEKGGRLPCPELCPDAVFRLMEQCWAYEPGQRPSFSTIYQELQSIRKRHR
T6 sequence (Q9NSY1 whole entry, the tested form may be a part): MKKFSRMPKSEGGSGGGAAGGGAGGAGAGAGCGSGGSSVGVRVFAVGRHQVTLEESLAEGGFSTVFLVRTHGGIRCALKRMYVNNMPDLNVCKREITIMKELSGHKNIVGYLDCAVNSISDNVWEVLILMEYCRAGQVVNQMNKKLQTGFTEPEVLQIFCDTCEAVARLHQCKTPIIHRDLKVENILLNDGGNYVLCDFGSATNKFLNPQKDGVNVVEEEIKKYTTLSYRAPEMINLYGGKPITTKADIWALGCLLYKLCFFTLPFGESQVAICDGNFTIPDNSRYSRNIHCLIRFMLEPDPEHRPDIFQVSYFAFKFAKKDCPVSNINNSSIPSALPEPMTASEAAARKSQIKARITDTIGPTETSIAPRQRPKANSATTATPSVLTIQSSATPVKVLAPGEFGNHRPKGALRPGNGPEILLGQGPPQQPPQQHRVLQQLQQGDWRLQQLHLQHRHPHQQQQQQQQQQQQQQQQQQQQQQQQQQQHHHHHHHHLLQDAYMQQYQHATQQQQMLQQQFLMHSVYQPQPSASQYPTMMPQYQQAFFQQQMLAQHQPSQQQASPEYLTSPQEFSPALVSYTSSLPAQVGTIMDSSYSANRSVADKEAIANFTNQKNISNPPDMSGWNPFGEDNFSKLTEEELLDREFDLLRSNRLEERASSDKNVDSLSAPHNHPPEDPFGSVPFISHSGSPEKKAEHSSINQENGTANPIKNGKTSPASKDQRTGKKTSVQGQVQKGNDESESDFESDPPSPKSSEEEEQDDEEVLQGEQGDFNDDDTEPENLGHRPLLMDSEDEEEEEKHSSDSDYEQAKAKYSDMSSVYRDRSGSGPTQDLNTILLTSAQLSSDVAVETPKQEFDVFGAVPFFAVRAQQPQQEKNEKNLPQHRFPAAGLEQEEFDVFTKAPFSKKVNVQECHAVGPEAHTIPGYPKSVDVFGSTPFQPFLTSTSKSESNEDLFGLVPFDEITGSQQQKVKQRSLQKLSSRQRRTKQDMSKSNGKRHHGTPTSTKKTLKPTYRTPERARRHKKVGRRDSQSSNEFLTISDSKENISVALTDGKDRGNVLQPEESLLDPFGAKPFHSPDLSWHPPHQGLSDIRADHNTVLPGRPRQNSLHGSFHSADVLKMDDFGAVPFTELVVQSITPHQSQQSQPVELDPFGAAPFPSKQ
T4 sequence (O15075 whole entry, the tested form may be a part): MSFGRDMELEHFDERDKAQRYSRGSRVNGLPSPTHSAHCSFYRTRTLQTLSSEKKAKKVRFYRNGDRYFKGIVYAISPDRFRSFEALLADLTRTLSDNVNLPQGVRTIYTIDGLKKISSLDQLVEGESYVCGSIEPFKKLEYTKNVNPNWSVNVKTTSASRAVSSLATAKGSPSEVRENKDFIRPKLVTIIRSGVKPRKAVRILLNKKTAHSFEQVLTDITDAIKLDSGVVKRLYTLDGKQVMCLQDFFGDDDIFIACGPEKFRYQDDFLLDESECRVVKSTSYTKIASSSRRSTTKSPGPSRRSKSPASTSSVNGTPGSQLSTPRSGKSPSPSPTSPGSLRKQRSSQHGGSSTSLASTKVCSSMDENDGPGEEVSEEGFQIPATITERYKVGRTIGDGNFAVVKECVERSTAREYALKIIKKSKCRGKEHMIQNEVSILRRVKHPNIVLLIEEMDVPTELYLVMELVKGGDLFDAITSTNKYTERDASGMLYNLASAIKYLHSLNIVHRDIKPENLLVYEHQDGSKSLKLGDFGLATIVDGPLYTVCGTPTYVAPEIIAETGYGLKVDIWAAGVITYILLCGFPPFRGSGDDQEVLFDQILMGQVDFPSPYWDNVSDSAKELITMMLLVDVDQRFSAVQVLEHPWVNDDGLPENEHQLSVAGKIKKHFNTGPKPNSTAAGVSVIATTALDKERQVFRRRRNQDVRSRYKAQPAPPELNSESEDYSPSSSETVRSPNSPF
T7 sequence (P45984 whole entry, the tested form may be a part): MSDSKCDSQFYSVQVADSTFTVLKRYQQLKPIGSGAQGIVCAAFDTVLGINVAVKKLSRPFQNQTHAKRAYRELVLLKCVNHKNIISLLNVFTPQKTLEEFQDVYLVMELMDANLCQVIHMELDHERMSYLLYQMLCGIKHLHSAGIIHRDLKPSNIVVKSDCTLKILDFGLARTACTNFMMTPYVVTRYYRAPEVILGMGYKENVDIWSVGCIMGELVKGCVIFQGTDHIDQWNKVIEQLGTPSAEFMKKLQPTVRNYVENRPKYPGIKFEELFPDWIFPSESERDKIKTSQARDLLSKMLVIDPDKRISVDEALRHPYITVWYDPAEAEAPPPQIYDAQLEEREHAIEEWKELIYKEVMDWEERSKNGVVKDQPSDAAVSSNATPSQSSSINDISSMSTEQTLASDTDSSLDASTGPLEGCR
T2 sequence (O43293 whole entry, the tested form may be a part): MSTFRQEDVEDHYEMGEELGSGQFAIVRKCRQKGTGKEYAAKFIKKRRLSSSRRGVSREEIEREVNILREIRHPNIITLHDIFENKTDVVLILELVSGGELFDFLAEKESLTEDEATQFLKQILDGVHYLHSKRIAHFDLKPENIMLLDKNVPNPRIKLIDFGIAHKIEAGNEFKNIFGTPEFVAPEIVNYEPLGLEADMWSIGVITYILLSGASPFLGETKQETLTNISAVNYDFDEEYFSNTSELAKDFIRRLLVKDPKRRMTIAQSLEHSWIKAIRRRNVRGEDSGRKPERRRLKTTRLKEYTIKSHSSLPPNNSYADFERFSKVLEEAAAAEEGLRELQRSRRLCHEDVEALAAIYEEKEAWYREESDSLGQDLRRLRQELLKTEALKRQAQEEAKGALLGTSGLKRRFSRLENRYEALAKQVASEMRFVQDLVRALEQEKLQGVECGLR
T8 sequence (Q9H2X6 whole entry, the tested form may be a part): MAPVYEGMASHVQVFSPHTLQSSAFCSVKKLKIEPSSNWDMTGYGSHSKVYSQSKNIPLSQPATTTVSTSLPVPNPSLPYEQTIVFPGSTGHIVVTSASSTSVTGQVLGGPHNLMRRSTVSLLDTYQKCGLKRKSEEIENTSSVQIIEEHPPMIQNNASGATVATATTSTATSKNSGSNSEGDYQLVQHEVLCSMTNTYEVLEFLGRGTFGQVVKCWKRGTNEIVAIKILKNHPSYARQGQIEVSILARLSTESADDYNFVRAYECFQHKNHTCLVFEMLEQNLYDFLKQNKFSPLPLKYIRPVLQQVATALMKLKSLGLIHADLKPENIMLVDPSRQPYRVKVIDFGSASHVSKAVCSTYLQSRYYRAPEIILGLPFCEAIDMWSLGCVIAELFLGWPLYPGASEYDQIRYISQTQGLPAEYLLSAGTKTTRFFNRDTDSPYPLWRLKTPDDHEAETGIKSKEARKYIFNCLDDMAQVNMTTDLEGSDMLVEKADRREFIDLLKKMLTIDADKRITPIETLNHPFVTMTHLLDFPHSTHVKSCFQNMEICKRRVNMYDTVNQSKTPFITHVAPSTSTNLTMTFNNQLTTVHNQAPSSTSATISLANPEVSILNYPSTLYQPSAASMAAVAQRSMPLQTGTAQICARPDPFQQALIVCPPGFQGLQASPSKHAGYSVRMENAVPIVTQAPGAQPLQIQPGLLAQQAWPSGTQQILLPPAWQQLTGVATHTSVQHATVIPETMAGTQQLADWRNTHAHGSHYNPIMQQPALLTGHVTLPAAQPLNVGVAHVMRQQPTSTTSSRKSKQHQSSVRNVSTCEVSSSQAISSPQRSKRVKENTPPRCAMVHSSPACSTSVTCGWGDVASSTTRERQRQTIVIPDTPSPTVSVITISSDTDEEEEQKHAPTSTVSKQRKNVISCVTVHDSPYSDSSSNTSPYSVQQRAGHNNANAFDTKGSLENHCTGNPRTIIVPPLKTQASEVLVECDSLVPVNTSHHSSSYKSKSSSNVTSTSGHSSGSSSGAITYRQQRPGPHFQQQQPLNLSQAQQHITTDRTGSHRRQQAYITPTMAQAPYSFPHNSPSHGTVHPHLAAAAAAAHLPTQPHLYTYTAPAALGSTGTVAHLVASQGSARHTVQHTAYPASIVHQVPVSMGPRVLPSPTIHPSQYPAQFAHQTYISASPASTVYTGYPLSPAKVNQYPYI

Structure (SMILES) | dTm [1] | S(5K) [1, 12] | # >5K [1, 13] | S(5K) [1, 14] | dTm [2] | dTm [3] | dTm [4] | dTm [5] | dTm [6] | dTm [7] | dTm [8] | dTm [9] | dTm [10] | dTm [11] | S (5 K) / share of screened kinases stabilized ([1]; DSF selectivity panel, thermal shift >5 K) | # >5K [1] | S(5K) [1]
Cc1cc(NC(=O)C2(C(=O)Nc3ccc(F)cc3)CC2)cc(-c2c[nH]c3ncnc(N4CCOCC4)c23)c1 [Compound 6] | 0.73 K | 0.13 | 13 | 0.125 | -1.48 K | 3.25 K | 1.34 K | 3.01 K | 4.17 K | 5.63 K | 2.51 K | 0.87 K | 7.75 K | 3.77 K | – | – | –
CNC(=O)c1cc(Oc2ccc(NC(=O)Nc3cc(C(C)(C)C)nn3-c3ccc4ncccc4c3)c(F)c2)ccn1 [Rebastinib, reference compound] | – | – | – | – | 0.28 K | 5.73 K | 2.63 K | 3.67 K | 7.16 K | 0.72 K | 9.78 K | – | 13.29 K | 0.53 K | – | – | –
COc1cc2c(Oc3ccc(NC(=O)C4(C(=O)Nc5ccc(F)cc5)CC4)cc3F)ccnc2cc1OCCCN1CCOCC1 [Foretinib, reference compound] | – | – | – | – | 1.08 K | 5.00 K | – | 0.55 K | 6.46 K | 1.65 K | 2.84 K | 4.61 K | 9.64 K | 2.73 K | – | 30 | 0.300
Cc1ccc(C(=O)Nc2ccc(CN3CCN(C)CC3)c(C(F)(F)F)c2)cc1C#Cc1cnc2cccnn12 [Ponatinib, reference compound] | – | – | – | – | – | – | – | – | – | – | – | – | – | – | – | 28 | 0.272
Cc1ccc(C(=O)Nc2ccc(CN3CCN(C)CC3)c(C(F)(F)F)c2)cc1C#Cc1cnc2[nH]ncc2c1 [GZD-824, reference compound] | -0.37 K | – | – | – | 0.04 K | 0.50 K | 4.88 K | 0.30 K | – | 4.51 K | 4.93 K | 1.22 K | 6.08 K | 1.62 K | – | 31 | 0.313
CN[C@@H]1C[C@H]2O[C@@](C)([C@@H]1OC)n1c3ccccc3c3c4c(c5c6ccccc6n2c5c31)C(=O)NC4 [Staurosporine] | – | – | – | – | 8.53 K | – | 7.05 K | 12.74 K | – | 18.68 K | – | 4.23 K | 8.03 K | – | – | – | –

The next lines start with results.

dTm [1] | S(5K) [1, 12] | # >5K [1, 13] | S(5K) [1, 14] | dTm [2] | dTm [3] | dTm [4] | dTm [5] | dTm [6] | dTm [7] | dTm [8] | dTm [9] | dTm [10] | dTm [11] | S (5 K) / share of screened kinases stabilized ([1]; DSF selectivity panel, thermal shift >5 K) | Structure (SMILES) | # >5K [1] | S(5K) [1]
-1.11 K | 0.22 | 22 | 0.220 | -0.69 K | 4.16 K | 2.82 K | -0.07 K | 6.21 K | 5.95 K | 2.56 K | 8.21 K | 9.07 K | 5.95 K | – | Cc1ccc(NC(=O)C2(C(=O)Nc3cccc(-c4c[nH]c5ncnc(N6CCOCC6)c45)c3)CC2)cc1 [Compound 14] | – | –
1.43 K | 0.09 | 9 | 0.087 | -3.53 K | 4.42 K | 3.41 K | 4.07 K | 3.58 K | 5.45 K | 4.80 K | 1.50 K | 4.18 K | 5.62 K | – | O=C(Nc1cc(F)cc(Br)c1)C1(C(=O)Nc2cccc(-c3c[nH]c4ncnc(N5CCOCC5)c34)c2)CC1 [Compound 27] | – | –
-2.19 K | 0.10 | 10 | 0.100 | -0.39 K | 1.15 K | 0.55 K | -1.88 K | 3.37 K | 4.89 K | 1.53 K | 6.00 K | 5.41 K | 3.98 K | – | COc1ccc(NC(=O)C2(C(=O)Nc3cccc(-c4c[nH]c5ncnc(N6CCOCC6)c45)c3)CC2)cc1 [Compound 16] | – | –
-1.65 K | 0.10 | 10 | 0.099 | -1.55 K | 6.34 K | 2.39 K | 2.36 K | 3.55 K | 1.64 K | 3.39 K | 1.85 K | 9.71 K | 1.92 K | 10% | Cc1ccc(-n2nc(C(C)(C)C)cc2NC(=O)Nc2cccc(-c3c[nH]c4nc(Cl)nc(N5CCOCC5)c34)c2)cc1 [Compound 30] | – | –
1.19 K | 0.37 | 37 | 0.370 | 0.82 K | 8.55 K | 4.62 K | 2.89 K | 8.66 K | 6.46 K | 3.96 K | 10.73 K | 11.74 K | 6.61 K | – | O=C(Nc1ccc(Cl)cc1)C1(C(=O)Nc2cccc(-c3c[nH]c4ncnc(N5CCOCC5)c34)c2)CC1 [Compound 13] | – | –
